Experiment [1] has as its system parental wild-type Ba/F3 cells. Nature of the experiment: Ba/F3 (WT) cell proliferation assay (Alamar Blue). In kind it is cell-based. The settings on record: Mus musculus. A general note: Resazurin is reduced to fluorescent resorufin, in cell work by metabolically active cells.
The subject of experiment [2] is LP-1 cell line (FGF-1/Heparin induced pERK). The experiment can be described thus: Cell-based pERK ELISA, LP-1 cells. The settings on record: Homo sapiens; for IC50: LP-1, read-out: LP-1 pERK ELISA (μM).
The mark [3] stands for this setting: BaF3, 72 hours, Alamar Blue, read-out: BaF3 WT prolif.
Setting [4] is: BaF3, read-out: BaF3 WT prolif, % inhibition.
The mark [5] stands for this setting: BaF3, 72 h, read-out: BaF3 WT prolif (μM).

Structures can show the parent of a compound that is named as a salt. Where two headings read alike, the source gives them in different places.

For orientation: inhibition means the drop in the measured response relative to a control, in per cent.

For `O=C(NCC(F)(F)F)Nc1cccc(-c2cnc3cc(-c4ccc(NCCO)nn4)ccn23)c1` [Example 67, 1-(3-{7-[6-(2-Hydroxy-ethylamino)-pyridazin-3-yl]-imidazo[1,2-a]pyridin-3-yl}-phenyl)-3-(2,2,2-trifluoro-ethyl)-urea], the figures for the IC50 in experiment [1] (setting [3]) and in experiment [2] were 2.1 µM and 0.84 µM, respectively.

For the compound `NC1CCN(c2ccc(-c3ccn4c(-c5cccc(NC(=O)NCC(F)(F)F)c5)cnc4c3)nn2)CC1` [Example 75, 1-(3-{7-[6-(4-Amino-piperidin-1-yl)-pyridazin-3-yl]-imidazo[1,2-a]pyridin-3-yl}-phenyl)-3-(2,2,2-trifluoro-ethyl)-urea tris-trifluoroacetate], the inhibition at 10 µM in experiment [1] (setting [4]) amounted to 32%. For the same compound, the IC50 in experiment [2] was 0.63 µM.

On to `CN1CCC(Nc2ccc(-c3ccn4c(-c5cccc(NC(=O)NCC(F)(F)F)c5)cnc4c3)nn2)CC1` [Example 76, 1-(3-{7-[6-(1-Methyl-piperidin-4-ylamino)-pyridazin-3-yl]-imidazo[1,2-a]pyridin-3-yl}-phenyl)-3-(2,2,2-trifluoro-ethyl)-urea tri-hydrochloride], for which the inhibition at 10 µM in experiment [1] (setting [4]) came out at 26%. Moreover, the IC50 in experiment [2] turned out to be 0.51 µM.

In the case of `O=C(NCC(F)(F)F)Nc1cccc(-c2cnc3cc(-c4cccnc4)ccn23)c1` [Example 78, 1-[3-(7-Pyridin-3-yl-imidazo[1,2-a]pyridin-3-yl)-phenyl]-3-(2,2,2-trifluoro-ethyl)-urea], the IC50 in experiment [1] (setting [3]) came out at 0.15 µM; in experiment [2], 0.017 µM.

Regarding `CN1CCN(c2ncc(-c3ccn4c(-c5cccc(NC(=O)NCC(F)(F)F)c5)cnc4c3)cn2)CC1` [Example 79, 1-(3-{7-[2-(4-Methyl-piperazin-1-yl)-pyrimidin-5-yl]-imidazo[1,2-a]pyridin-3-yl}-phenyl)-3-(2,2,2-trifluoro-ethyl)-urea bis-formate], the IC50 in experiment [1] (setting [5]) came to 0.4 µM; in experiment [2] it was 0.035 µM.

As to `COCCNc1ccc(-c2ccn3c(-c4cccc(NC(=O)NCC(F)(F)F)c4)cnc3c2)nn1` [Example 80, 1-(3-{7-[6-(2-Methoxy-ethylamino)-pyridazin-3-yl]-imidazo[1,2-a]pyridin-3-yl}-phenyl)-3-(2,2,2-trifluoro-ethyl)-urea hydrochloride], in experiment [1] (setting [4]), the inhibition at 10 µM was 0%. For the same compound, in experiment [2], the IC50 came to 0.039 µM.

In the case of `CC(C)(CO)Nc1ccc(-c2ccn3c(-c4cccc(NC(=O)NCC(F)(F)F)c4)cnc3c2)nn1` [Example 81, 1-(3-{7-[6-(2-Hydroxy-1,1-dimethyl-ethylamino)-pyrid-azin-3-yl]-1,7-dihydro-imidazo[1,2-a]pyridin-3-yl}-phenyl)-3-(2,2,2-trifluoro-ethyl)-urea hydrochloride], the inhibition at 3 µM in experiment [1] (setting [4]) is 20%. Moreover, in experiment [2], the IC50 was found to be 0.028 µM.

Turning to `Nc1cnc(-c2ccn3c(-c4cccc(NC(=O)NCC(F)(F)F)c4)cnc3c2)cn1` [Example 85, 1-{3-[7-(5-Amino-pyrazin-2-yl)-imidazo[1,2-a]pyridin-3-yl]-phenyl}-3-(2,2,2-trifluoro-ethyl)-urea formate], the IC50 in experiment [1] (setting [5]) was 0.17 µM; in experiment [2], 0.065 µM.

Take `Cn1ccc(C#Cc2ccn3c(-c4cccc(NC(=O)NCC(F)(F)F)c4)cnc3c2)n1` [Example 86, 1-{3-[7-(1-Methyl-1H-pyrazol-3-ylethynyl)-imidazo[1,2-a]pyridin-3-yl]-phenyl}-3-(2,2,2-trifluoro-ethyl)-urea formate]: the IC50 in experiment [1] (setting [5]) is 1.9 µM; in experiment [2], 0.04 µM.

Take `O=C(NCC(F)(F)F)Nc1cccc(-c2cnc3cc(-c4cnc(N5CC(F)(F)C5)nc4)ccn23)c1` [Example 87, 1-(3-{7-[2-(3,3-Difluoro-azetidin-1-yl)-pyrimidin-5-yl]-imidazo[1,2-a]pyridin-3-yl}-phenyl)-3-(2,2,2-trifluoro-ethyl)-urea bis-trifluoroacetate]: the IC50 in experiment [1] (setting [5]) is 0.41 µM; in experiment [2] it was 0.072 µM.

As to `O=C(NCC(F)(F)F)Nc1cccc(-c2cnc3cc(-c4ccnnc4)ccn23)c1` [Example 88, 1-[3-(7-Pyridazin-4-yl-imidazo[1,2-a]pyridin-3-yl)-phenyl]-3-(2,2,2-trifluoro-ethyl)-urea formate], the inhibition at 10 µM turned out to be 0% in experiment [1] (setting [4]) and 16% in experiment [2] (LP-1, read-out: LP-1 pERK ELISA, % inhibition).

For `COc1cnc(-c2ccn3c(-c4cccc(NC(=O)NCC(F)(F)F)c4)cnc3c2)cn1` [Example 89, 1-{3-[7-(5-Methoxy-pyrazin-2-yl)-imidazo[1,2-a]pyridin-3-yl]-phenyl}-3-(2,2,2-trifluoro-ethyl)-urea], the IC50 in experiment [1] (setting [3]) stood at 0.097 µM; in experiment [2], 0.073 µM.

In the case of `COc1cncc(-c2ccn3c(-c4cccc(NC(=O)NCC(F)(F)F)c4)cnc3c2)n1` [Example 90, 1-{3-[7-(6-Methoxy-pyrazin-2-yl)-imidazo[1,2-a]pyridin-3-yl]-phenyl}-3-(2,2,2-trifluoro-ethyl)-urea formate], the IC50 in experiment [1] (setting [5]) amounted to 0.76 µM; in experiment [2] it was 0.092 µM.

Consider `Cc1ccc(-c2ccn3c(-c4cccc(NC(=O)NCC(F)(F)F)c4)cnc3c2)nc1` [Example 91, 1-{3-[7-(5-Methyl-pyridin-2-yl)-imidazo[1,2-a]pyridin-3-yl]-phenyl}-3-(2,2,2-trifluoro-ethyl)-urea formate], for which the values for the IC50 in experiment [1] (setting [5]) and in experiment [2] were 0.1 µM and 0.0079 µM, respectively.

With `O=C(NCC(F)(F)F)Nc1cccc(-c2cnc3cc(-c4ccc(CO)cn4)ccn23)c1` [Example 92, 1-{3-[7-(5-Hydroxymethyl-pyridin-2-yl)-imidazo[1,2-a]pyridin-3-yl]-phenyl}-3-(2,2,2-trifluoro-ethyl)-urea formate], the IC50 in experiment [1] (setting [5]) stood at 0.53 µM; in experiment [2], 0.11 µM.

Consider `Cc1cnc(-c2ccn3c(-c4cccc(NC(=O)NCC(F)(F)F)c4)cnc3c2)cn1` [Example 93, 1-{3-[7-(5-Methyl-pyrazin-2-yl)-imidazo[1,2-a]pyridin-3-yl]-phenyl}-3-(2,2,2-trifluoro-ethyl)-urea], for which the IC50 was determined as 0.043 µM in experiment [1] (setting [3]) and 0.065 µM in experiment [2].

With `O=C1CN(c2ncc(-c3ccn4c(-c5cccc(NC(=O)NCC(F)(F)F)c5)cnc4c3)cn2)CCN1` [Example 94, 1-(3-{7-[2-(3-Oxo-piperazin-1-yl)-pyrimidin-5-yl]-imidazo[1,2-a]pyridin-3-yl}-phenyl)-3-(2,2,2-trifluoro-ethyl)-urea hydrochloride], the IC50 in experiment [1] (setting [5]) was 5.8 µM; in experiment [2] it was 0.95 µM.

On to `O=C1CN(c2ccc(-c3ccn4c(-c5cccc(NC(=O)NCC(F)(F)F)c5)cnc4c3)nn2)CCN1` [Example 95, 1-(3-{7-[6-(3-Oxo-piperazin-1-yl)-pyridazin-3-yl]-imidazo[1,2-a]pyridin-3-yl}-phenyl)-3-(2,2,2-trifluoro-ethyl)-urea bis-hydrochloride], for which, in experiment [1] (setting [4]), the inhibition at 10 µM is 0%. In addition, the IC50 in experiment [2] was determined as 3.4 µM.

Consider `O=C(NCC(F)(F)F)Nc1cccc(-c2cnc3cc(-c4ccc(F)cn4)ccn23)c1` [Example 96, 1-{3-[7-(5-Fluoro-pyridin-2-yl)-imidazo[1,2-a]pyridin-3-yl]-phenyl}-3-(2,2,2-trifluoro-ethyl)-urea bis-hydrochloride], for which the IC50 in experiment [1] (setting [5]) was found to be 1.7 µM; in experiment [2] it was 0.0063 µM.

Consider `Cc1ccnc(-c2ccn3c(-c4cccc(NC(=O)NCC(F)(F)F)c4)cnc3c2)c1` [Example 97, 1-{3-[7-(4-Methyl-pyridin-2-yl)-imidazo[1,2-a]pyridin-3-yl]-phenyl}-3-(2,2,2-trifluoro-ethyl)-urea bis-hydrochloride], for which the IC50 in experiment [1] (setting [5]) came to 0.44 µM; in experiment [2], 0.0081 µM.

Turning to `Cc1cccc(-c2ccn3c(-c4cccc(NC(=O)NCC(F)(F)F)c4)cnc3c2)n1` [Example 98, 1-{3-[7-(6-Methyl-pyridin-2-yl)-imidazo[1,2-a]pyridin-3-yl]-phenyl}-3-(2,2,2-trifluoro-ethyl)-urea bis-hydrochloride], the IC50 stood at 0.7 µM in experiment [1] (setting [5]) and 0.02 µM in experiment [2].

Consider `CCOc1cccc(-c2ccn3c(-c4cccc(NC(=O)NCC(F)(F)F)c4)cnc3c2)n1` [Example 99, 1-{3-[7-(6-Ethoxy-pyridin-2-yl)-imidazo[1,2-a]pyridin-3-yl]-phenyl}-3-(2,2,2-trifluoro-ethyl)-urea bis-hydrochloride], for which the IC50 in experiment [1] (setting [5]) was found to be 0.32 µM; in experiment [2] it was 0.063 µM.

In the case of `Cc1cncc(-c2ccn3c(-c4cccc(NC(=O)NCC(F)(F)F)c4)cnc3c2)n1` [Example 100, 1-{3-[7-(6-Methyl-pyrazin-2-yl)-imidazo[1,2-a]pyridin-3-yl]-phenyl}-3-(2,2,2-trifluoro-ethyl)-urea], the IC50 worked out at 0.97 µM in experiment [1] (setting [3]) and 0.09 µM in experiment [2].

As for `COc1cccc(-c2ccn3c(-c4cccc(NC(=O)NCC(F)(F)F)c4)cnc3c2)n1` [Example 101, 1-{3-[7-(6-Methoxy-pyridin-2-yl)-imidazo[1,2-a]pyridin-3-yl]-phenyl}-3-(2,2,2-trifluoro-ethyl)-urea], the IC50 in experiment [1] (setting [3]) was determined as 0.16 µM; in experiment [2] it was 0.055 µM.

For the compound `Nc1nc(-c2ccn3c(-c4cccc(NC(=O)NCC(F)(F)F)c4)cnc3c2)ncc1F` [Example 102, 1-{3-[7-(4-Amino-5-fluoro-pyrimidin-2-yl)-imidazo[1,2-a]pyridin-3-yl]-phenyl}-3-(2,2,2-trifluoro-ethyl)-urea bis-hydrochloride], the IC50 in experiment [1] (setting [5]) was 2.3 µM; in experiment [2], 0.0939 µM.

Regarding `Nc1ccnc(-c2ccn3c(-c4cccc(NC(=O)NCC(F)(F)F)c4)cnc3c2)c1` [Example 108, 1-{3-[7-(4-Amino-pyridin-2-yl)-imidazo[1,2-a]pyridin-3-yl]-phenyl}-3-(2,2,2-trifluoro-ethyl)-urea diformate], the inhibition at 10 µM in experiment [1] (setting [4]) turned out to be 46%. In addition, in experiment [2], the IC50 stood at 1.2 µM.

Take `Nc1ccnc(-c2ccn3c(-c4cccc(NC(=O)NCC(F)(F)F)c4)cnc3c2)n1` [Example 110, 1-{3-[7-(4-Amino-pyrimidin-2-yl)-imidazo[1,2-a]pyridin-3-yl]-phenyl}-3-(2,2,2-trifluoro-ethyl)-urea]: in experiment [1] (setting [4]), the inhibition at 10 µM came to 43%. For the same compound, the IC50 in experiment [2] was found to be 0.0917 µM.

Values taken from patent publication US8796244B2, “Imidazopyridine derivatives as inhibitors of receptor tyrosine kinases” (Astex Therapeutics Ltd, priority 2008, dated 2014).
